The test concerns the target T1, Protein deacetylase HDAC6 (Homo sapiens, UniProt Q9UBN7).
T1 sequence (Q9UBN7 whole entry): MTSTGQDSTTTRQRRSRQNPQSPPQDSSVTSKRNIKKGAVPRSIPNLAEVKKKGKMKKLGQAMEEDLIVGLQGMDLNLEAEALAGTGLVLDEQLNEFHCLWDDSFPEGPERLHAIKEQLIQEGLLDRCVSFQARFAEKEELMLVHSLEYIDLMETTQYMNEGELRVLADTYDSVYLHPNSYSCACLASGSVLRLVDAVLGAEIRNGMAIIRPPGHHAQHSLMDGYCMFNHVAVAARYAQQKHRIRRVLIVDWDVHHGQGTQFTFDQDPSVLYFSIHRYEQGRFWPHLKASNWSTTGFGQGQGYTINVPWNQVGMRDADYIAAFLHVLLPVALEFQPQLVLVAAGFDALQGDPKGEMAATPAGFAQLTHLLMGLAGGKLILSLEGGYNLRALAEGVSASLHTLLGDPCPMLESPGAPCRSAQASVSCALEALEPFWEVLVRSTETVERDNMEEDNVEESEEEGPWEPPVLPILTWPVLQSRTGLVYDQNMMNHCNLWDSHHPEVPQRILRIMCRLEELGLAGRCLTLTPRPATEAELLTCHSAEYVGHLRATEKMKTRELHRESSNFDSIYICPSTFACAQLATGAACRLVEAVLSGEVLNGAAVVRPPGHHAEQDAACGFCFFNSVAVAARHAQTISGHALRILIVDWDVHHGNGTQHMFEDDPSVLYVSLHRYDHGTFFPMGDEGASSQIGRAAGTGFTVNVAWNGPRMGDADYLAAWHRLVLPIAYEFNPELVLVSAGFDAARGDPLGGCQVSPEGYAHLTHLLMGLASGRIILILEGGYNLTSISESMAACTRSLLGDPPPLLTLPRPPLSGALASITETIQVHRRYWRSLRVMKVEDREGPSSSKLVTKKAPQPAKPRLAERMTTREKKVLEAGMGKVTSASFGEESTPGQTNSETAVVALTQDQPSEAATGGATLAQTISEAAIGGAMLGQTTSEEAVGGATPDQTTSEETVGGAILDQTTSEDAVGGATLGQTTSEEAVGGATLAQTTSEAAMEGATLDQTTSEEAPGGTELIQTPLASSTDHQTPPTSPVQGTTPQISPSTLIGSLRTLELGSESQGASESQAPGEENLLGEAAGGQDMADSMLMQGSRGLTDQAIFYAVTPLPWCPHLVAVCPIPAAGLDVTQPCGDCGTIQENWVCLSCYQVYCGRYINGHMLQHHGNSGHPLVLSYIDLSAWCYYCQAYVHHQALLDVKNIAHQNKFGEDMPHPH
The test can be described thus: In vitro enzymatic HDACs assays: All Examples were tested in HDAC1, 2, 3, 6 and 8 in vitro enzymatic assays. The assay principle is well known (Hauser et al. 2009, Bradner et al. 2010) and all necessary reagents like enzymes, substrates, developer and reference compounds are commercially available (see e.g. BPS Biosciences http://www.bpsbioscience.com/). A series of dilutions of the compounds were prepared with a top concentration of 200 μM (2 μM for HDAC6). The enzymatic reactions were conducted in a mixture containing assay buffer, bovine serum albumin, HDAC substrate, and a test compound. After enzymatic reaction, developer was added and after an additional incubation time, fluorescence intensity was measured at an excitation wavelength of 360 nm and an emission wavelength of 460 nm. A selection of the Examples were tested in a full HDAC panel containing HDAC1, 2, 3, 4, 5, 6, 7, 8, 9, 10 and 11 in vitro enzymatic assays. The tests were performed as above except that a series of dilutions of the compounds were prepared with a top concentration of 10 μM for all HDACs.

pIC50: −log10 of the molar value.

In the case of `O=C(NO)c1ccc2nc(-c3ccc(-c4ccccc4)c(F)c3)[nH]c2c1`, the pIC50 (in general, −log10 of the IC50, conventionally taken in molar units) is 7.72.
